In patent US9938322B2, “β-hairpin peptidomimetics” (priority 2013, dated 2018):
*1 amine or outer side, *2 acyl side, *3 side chain or, on linkers, in order; H or OH if unused. Where a SMILES comes first, the peptide text is derived from it. Side-chain parts run from the residue outwards. [ ]: non-standard residue; d: D form. The star is where a group is joined. NH(4-Cl-phenyl) = Clc1ccc(N*)cc1; Cha = N[C@@H](CC1CCCCC1)C(=O)O; Tle = CC(C)(C)[C@H](N)C(=O)O; NH(2-ClPh) = Clc1ccccc1N*; dDab = NCC[C@@H](N)C(=O)O; Orn = NCCC[C@H](N)C(=O)O; Dab = NCC[C@H](N)C(=O)O; Dap = NC[C@H](N)C(=O)O; CO = O=C([*:1])[*:2]

Columns and labels:
Type in all cases: cell-based
[1] = test system: Klebsiella pneumoniae ATCC 13883; details: Mueller-Hinton II broth + 0.02% BSA, 18-20 hours at 35° C.
Description: (§1) Lyophilized peptides were weighed on a Microbalance (Mettler MT5) and dissolved in sterile water to a final concentration of 1 mg/ml. Stock solutions were kept at +4° C., light protected.
(§2) The selective antimicrobial activities of the peptides were determined in 96-well plates (Greiner, polystyrene) by the standard NCCLS broth microdilution method (National Committee for Clinical Laboratory Standards 1993. Methods for dilution antimicrobial susceptibility tests for bacteria that grow aerobically, 3rd ed. Approved standard M7-A6; National Committee for Clinical laboratory standards, Wayne, Pa.) with slight modifications. Inocula of the microorganisms were diluted into Mueller-Hinton II (MH, cation adjusted) broth+0.02% BSA and compared with a 0.5 McFarland standard to give appr. 10^6 colony forming units (CFU)/ml. Aliquots (50 μl) of inoculate were added to 50 μl of MH broth+0.02% BSA containing the peptide in serial two-fold dilutions. The following microorganisms were used to determine antibiotic selectivity of the peptides: Escherichia coli ATCC 25922, Klebsiella pneumoniae ATCC 13883 and Acinetobacter baumannii DSM 30008.

[2] = test system: Escherichia coli ATCC 25922; details: Mueller-Hinton II broth + 0.02% BSA, 18-20 hours at 35° C.
Description: as §1, §2

[3] = test system: Acinetobacter baumannii DSM 30008; details: Mueller-Hinton II broth + 0.02% BSA, 18-20 hours at 35° C.
Description: as §1, §2

[4] = test system: human red blood cells (hRBC); experiment: Hemolysis of human red blood cells; details: 100 μg/ml, 20% hRBC, 1 h at 37° C.
Procedure, shortened: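 Washed fresh human erythrocytes (20% v/v, about 0.9×10^9 cells/ml final) incubated with peptide at 100 μg/ml for 1 h at 37° C with shaking. Supernatant OD540 read; hemolysis expressed relative to 2.5% Triton X-100 (100%) and PBS with 0.001% acetic acid (0%).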

| Structure (SMILES) | Klebsiella pneumoniae ATCC 13883 MIC [1] [µg/mL] | Escherichia coli ATCC 25922 MIC [2] [µg/mL] | Acinetobacter baumannii DSM 30008 MIC [3] [µg/mL] | Hemolysis at 100 μg/ml [4] [%] |
| --- | --- | --- | --- | --- |
| C[C@@H]1NC(=O)[C@H](CNC(=O)Nc2ccc(Cl)cc2)NC(=O)[C@@H]2CCCN2C(=O)[C@H]2CCCN2C(=O)[C@H](CO)NC(=O)[C@H](C)NC(=O)[C@H](C(C)(C)C)NC(=O)[C@H](CCN)NC(=O)[C@H](Cc2c[nH]c3ccccc23)NC(=O)[C@H](CCN)NC(=O)[C@@H](CCN)NC(=O)[C@H](CCCN)NC(=O)[C@H](CCN)NC(=O)[C@H](CC2CCCCC2)NC1=O [compound 53] (cyclo([Dap]([CO-NH(4-Cl-phenyl)])A[Cha][Dab][Orn][dDab][Dab]W[Dab][Tle]AS[dP]P)) | 1 | 1 | 1 | 2 |
| CC(C)C[C@@H]1NC(=O)[C@@H]2CCCN2C(=O)[C@H]2CCCN2C(=O)[C@H](CO)NC(=O)[C@H](C)NC(=O)[C@H](C(C)(C)C)NC(=O)[C@H](CCN)NC(=O)[C@H](Cc2c[nH]c3ccccc23)NC(=O)[C@H](CCN)NC(=O)[C@@H](CCN)NC(=O)[C@H](CCCN)NC(=O)[C@H](CCN)NC(=O)[C@H](CC2CCCCC2)NC(=O)[C@H](CNC(=O)Nc2ccccc2Cl)NC1=O [compound 38] (cyclo(L[Dap]([CO-NH(2-ClPh)])[Cha][Dab][Orn][dDab][Dab]W[Dab][Tle]AS[dP]P)) | 1 | 1 | 1 | 4 |
| C[C@@H]1NC(=O)[C@H](CNC(=O)Nc2ccccc2Cl)NC(=O)[C@@H]2CCCN2C(=O)[C@H]2CCCN2C(=O)[C@H](CO)NC(=O)[C@H](C)NC(=O)[C@H](C(C)(C)C)NC(=O)[C@H](CCN)NC(=O)[C@H](Cc2c[nH]c3ccccc23)NC(=O)[C@H](CCN)NC(=O)[C@@H](CCN)NC(=O)[C@H](CCCN)NC(=O)[C@H](CCN)NC(=O)[C@H](CC2CCCCC2)NC1=O [compound 52] (cyclo([Dap]([CO-NH(2-ClPh)])A[Cha][Dab][Orn][dDab][Dab]W[Dab][Tle]AS[dP]P)) | 1 | 1 | 2 | 0 |
